From patent US10550110B2, “Tetrahydroquinoline sulfonamide derivatives as inverse agonists of retinoid-related orphan receptor gamma (ROR gamma (t))” (GALDERMA RESEARCH & DEVELOPMENT, priority 2014, dated 2020) come the findings set out here.

Bounds are passed on as bounds.

The assay concerns the target T1, ROR gamma ligand-binding domain (LBD) (hRORg) (Homo sapiens, UniProt P51449).
T1 construct: expressed in transfected cells; host or cells: HG5LN (HeLa line with GAL4-responsive luciferase reporter)
T1 sequence (P51449 269-508 limits assumed): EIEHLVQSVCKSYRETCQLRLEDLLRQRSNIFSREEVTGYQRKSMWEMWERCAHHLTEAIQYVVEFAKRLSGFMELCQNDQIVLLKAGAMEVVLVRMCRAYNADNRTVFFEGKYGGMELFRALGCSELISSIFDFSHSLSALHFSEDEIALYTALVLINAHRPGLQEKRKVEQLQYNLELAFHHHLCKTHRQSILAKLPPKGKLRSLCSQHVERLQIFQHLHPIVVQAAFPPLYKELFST
Put plainly: GAL4-RORγ transactivation (luciferase reporter, HG5LN HeLa line). The assay is classed as cell-based. As to conditions: HG5LN HeLa line with GAL4 DBD fused to ROR gamma LBD, 18 hours incubation. The text has this: GAL4—RORγ Transactivation
The RORγ transactivation model was developed from the line HG5LN, which is a HeLa line that stably expresses a luciferase reporter gene controlled by a pentamer of the GAL4 recognition domain of yeast and of a β-globin promoter. The HG5LN line was stably transfected by the DNA-binding domain (DBD) of GAL4 fused to the ROR gamma ligand-binding domain (LBD). Molecules that inhibit the ROR gamma constitutive activity reduce the luciferase expression, thus leading to a reduction in the emitted luminescence.
The cells are seeded in 384-well plates (5000 cells in 45 μL/well of culture medium containing 10% fetal calf serum) and incubated for 4 hours at 37° C., 5% CO2. 5 μL of the test molecules (compounds described in the tables described above) are then added to each well and the plates are incubated for 18 hours at a temperature of 37° C. under 5% of CO2. 20 μL of luciferase substrate (Promega) are added to each well and the luminescence emitted is read by a microplate reader.
The luminescence units (“RLU”) are normalized by positive controls (“POS” containing a saturated concentration of N-(2,2,2-trifluoroethyl)-N-[4-[2,2,2-trifluoro-1-hydroxy-1-(trifluoromethyl)ethyl]phenyl])benzenesulfonamide and negative controls (“NEG” containing DMSO): % inhibition=((RLU-NEG)*100)/(POS-NEG). The IC50 values are calculated from a 4-parameter logistic model using the XLFit software (IDBS).
On the technique in general: A reporter such as luciferase makes a cellular process visible.
As a reminder, the IC50 is the concentration at which inhibition is half-maximal. Read a high IC50 as weaker potency in that assay. With `CCc1ccc(N(CC(C)C)S(=O)(=O)c2ccc3c(c2)C(O)CCN3C2CCN(C(C)=O)CC2)cc1` (stereo not shown) [Compound 61, 1-(1-acetylpiperidin-4-yl)-4-hydroxy-1,2,3,4-tetrahydroquinoline-6-sulfonic acid (4-ethylphenyl)isobutylamide], the half-maximal inhibitory concentration (IC50) was more than 1000 nM.
For `CCc1ccc(N(CC(C)C)S(=O)(=O)c2ccc3c(c2)C(O)CCN3CC2CCS(=O)(=O)CC2)cc1` (stereo not shown) [Compound 17, 1-(1,1-dioxohexahydro-1λ^6-thiopyran-4-ylmethyl)-4-hydroxy-1,2,3,4-tetrahydroquinoline-6-sulfonic acid (4-ethylphenyl)isobutylamide] the value was more than 1000 nM; for `CCc1ccc(N(CC(C)C)S(=O)(=O)c2ccc3c(c2)C(O)CCN3CC2CCC(C#N)CC2)cc1` (stereo not shown) [Compound 35, 1-(4-cyanocyclohexylmethyl)-4-hydroxy-1,2,3,4-tetrahydroquinoline-6-sulfonic acid (4-ethylphenyl)isobutylamide], more than 1000 nM.
`CCc1ccc(N(CC(C)C)S(=O)(=O)c2ccc3c(c2)C(O)CCN3CC2CCC(F)(F)C2)cc1` (stereo not shown) [Compound 34, 1-(3,3-difluorocyclopentylmethyl)-4-hydroxy-1,2,3,4-tetrahydroquinoline-6-sulfonic acid (4-ethylphenyl)isobutylamide] had an IC50 of 100 to 1000 nM.
For `CCc1ccc(N(CC(C)C)S(=O)(=O)c2ccc3c(c2)C(O)CCN3[C@H]2CC[C@H](C(=O)OC)CC2)cc1` (stereo partly drawn) [Compound 48, methyl (1R,4R)-4-(6-(N-(4-ethylphenyl)-N-isobutylsulfamoyl)-4-hydroxy-3,4-dihydroquinolin-1(2H)-yl)cyclohexane-1-carboxylate] the value was more than 1000 nM; for `CCc1ccc(N(CC(C)C)S(=O)(=O)c2ccc3c(c2)C(O)CCN3[C@H](C)C2CCOCC2)cc1` (stereo partly drawn) [Compound 39, 4-hydroxy-1-[(R)-1-(tetrahydropyran-4-yl)ethyl]-1,2,3,4-tetrahydroquinoline-6-sulfonic acid (4-ethylphenyl)isobutylamide], more than 1000 nM; for `CCc1ccc(N(CC(C)C)S(=O)(=O)c2ccc3c(c2)C(O)CCN3C2CCNC(=O)C2)cc1` (single isomer, unassigned) [Compound 52, 4-hydroxy-1-(2-oxopiperidin-4-yl)-1,2,3,4-tetrahydroquinoline-6-sulfonic acid (4-ethylphenyl)isobutylamide], more than 1000 nM.
For `CCc1ccc(N(CC(C)C)S(=O)(=O)c2ccc3c(c2)C(=O)CCN3C2CCN(S(C)(=O)=O)CC2)cc1` [Compound 63, 1-(1-methanesulfonylpiperidin-4-yl)-4-oxo-1,2,3,4-tetrahydroquinoline-6-sulfonic acid (4-ethylphenyl)isobutylamide] the value was more than 1000 nM.
For `CCc1ccc(N(CC(C)C)S(=O)(=O)c2ccc3c(c2)C(O)CCN3CC2COC2)cc1` (stereo not shown) [Compound 18, 4-hydroxy-1-oxetan-3-ylmethyl-1,2,3,4-tetrahydroquinoline-6-sulfonic acid (4-ethylphenyl)isobutylamide] the value was 100 to 1000 nM; for `CCc1ccc(N(CC(C)C)S(=O)(=O)c2ccc3c(c2)C(=O)CCN3CC2(C)CCOCC2)cc1` [Compound 6, 1-(4-methyltetrahydropyran-4-ylmethyl)-4-oxo-1,2,3,4-tetrahydroquinoline-6-sulfonic acid (4-ethylphenyl)isobutylamide], 100 to 1000 nM; for `CCc1ccc(N(CC(C)C)S(=O)(=O)c2ccc3c(c2)C(O)CCN3C2CCS(=O)(=O)CC2)cc1` (stereo not shown) [Compound 27, 1-(1,1-dioxohexahydro-1λ^6-thiopyran-4-yl)-4-hydroxy-1,2,3,4-tetrahydroquinoline-6-sulfonic acid (4-ethylphenyl)isobutylamide], 100 to 1000 nM.
In turn, `CCc1ccc(N(CC(C)C)S(=O)(=O)c2ccc3c(c2)C(O)CCN3CC2CCC(F)(F)CC2)cc1` (stereo not shown) [Compound 33, 1-(4,4-difluorocyclohexylmethyl)-4-hydroxy-1,2,3,4-tetrahydroquinoline-6-sulfonic acid (4-ethylphenyl)isobutylamide] had a half-maximal inhibitory concentration (IC50) of more than 1000 nM.
Consider `CCc1ccc(N(CC(C)C)S(=O)(=O)c2ccc3c(c2)C(O)CCN3[C@H]2CC[C@@H](C(=O)OC)CC2)cc1` (stereo partly drawn) [Compound 49, methyl (1S,4S)-4-(6-(N-(4-ethylphenyl)-N-isobutylsulfamoyl)-4-hydroxy-3,4-dihydroquinolin-1(2H)-yl)cyclohexane-1-carboxylate], for which the half-maximal inhibitory concentration (IC50) was more than 1000 nM.
`CCc1ccc(N(CC(C)C)S(=O)(=O)c2ccc3c(c2)C(O)CCN3[C@@H](C)C2CCOCC2)cc1` (stereo partly drawn) [Compound 40, 4-hydroxy-1-[(S)-1-(tetrahydropyran-4-yl)ethyl]-1,2,3,4-tetrahydroquinoline-6-sulfonic acid (4-ethylphenyl)isobutylamide] gave a 50% inhibitory concentration (IC50) of 100 to 1000 nM.
The molecule `CCc1ccc(N(CC(C)C)S(=O)(=O)c2ccc3c(c2)C(=O)CCN3C2CCNCC2)cc1` [Compound 55, 4-oxo-1-piperidin-4-yl-1,2,3,4-tetrahydroquinoline-6-sulfonic acid (4-ethylphenyl)isobutylamide] had an IC50 of more than 1000 nM.
Under `CCc1ccc(N(CC(C)C)S(=O)(=O)c2ccc3c(c2)C(O)CCN3C2CCNCC2)cc1` (stereo not shown) [Compound 57, 4-hydroxy-1-piperidin-4-yl-1,2,3,4-tetrahydroquinoline-6-sulfonic acid (4-ethylphenyl)isobutylamide] stands more than 1000 nM; under `CCc1ccc(N(CC(C)C)S(=O)(=O)c2ccc3c(c2)C(O)CCN3CC2CNC(=O)C2)cc1` (stereo not shown) [Compound 26, 4-hydroxy-1-(5-oxopyrrolidin-3-ylmethyl)-1,2,3,4-tetrahydroquinoline-6-sulfonic acid (4-ethylphenyl)isobutylamide], 100 to 1000 nM; under `CCc1ccc(N(CC(C)C)S(=O)(=O)c2ccc3c(c2)C(O)CCN3CC2CCS(=O)(=O)C2)cc1` (stereo not shown) [Compound 22, 1-(1,1-dioxotetrahydro-1λ^6-thiophen-3-ylmethyl)-4-hydroxy-1,2,3,4-tetrahydroquinoline-6-sulfonic acid (4-ethylphenyl)isobutylamide], 100 to 1000 nM.
Consider `CCc1ccc(N(CC(C)C)S(=O)(=O)c2ccc3c(c2)C(O)CCN3CC2CCC(=O)N2)cc1` (stereo not shown) [Compound 9, 4-hydroxy-1-(5-oxopyrrolidin-2-ylmethyl)-1,2,3,4-tetrahydroquinoline-6-sulfonic acid (4-ethylphenyl)isobutylamide], for which the IC50 was 100 to 1000 nM.
For `CCc1ccc(N(CC(C)C)S(=O)(=O)c2ccc3c(c2)C(O)CCN3CC2CCN(C(C)=O)CC2)cc1` (stereo not shown) [Compound 58, 1-(1-acetylpiperidin-4-ylmethyl)-4-hydroxy-1,2,3,4-tetrahydroquinoline-6-sulfonic acid (4-ethylphenyl)isobutylamide] the value was more than 1000 nM.
`CCc1ccc(N(CC(C)C)S(=O)(=O)c2ccc3c(c2)C(O)CCN3CC2CCN(C(=O)OC)CC2)cc1` (stereo not shown) [Compound 51, methyl ester of 4-{6-[(4-ethylphenyl)isobutylsulfamoyl]-4-hydroxy-3,4-dihydro-2H-quinolin-1-ylmethyl}piperidine-1-carboxylic acid] registered an IC50 of more than 1000 nM.
Under `CCc1ccc(N(CC(C)C)S(=O)(=O)c2ccc3c(c2)C(O)CCN3CC2CCC(O)CC2)cc1` (single isomer, unassigned) [Compound 42, 4-hydroxy-1-(4-hydroxycyclohexylmethyl)-1,2,3,4-tetrahydroquinoline-6-sulfonic acid (4-ethylphenyl)isobutylamide] stands 100 to 1000 nM.
